ChEMBL document CHEMBL1201862, “PubChem BioAssay data set” (2004)
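Five concentrations, 48 hours, 96-well plates. Abbreviation: GI50, concentration required for 50% inhibition of growth.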 Calls of active or inactive are those of the source. Cut-off read from the data, not from the text of the source: active = GI50 up to about 1.1 µM and inactive = higher.

What was measured:
Assay in all cases: inhibition of tumour cell growth, NCI panel, 48 h
BT-549 = tested on: BT-549
SW-620 = tested on: SW-620
PC-3 = tested on: PC-3
SNB-19 = tested on: SNB-19
RXF 393 = tested on: RXF 393
MDA-MB-231 = tested on: MDA-MB-231
MDA-N = tested on: MDA-N
K562 = tested on: K562
OVCAR-3 = tested on: OVCAR-3
NCI/ADR-RES = tested on: NCI/ADR-RES
T47D = tested on: T47D
SF-295 = tested on: SF-295
SF-268 = tested on: SF-268
KM12 = tested on: KM12
HCT-116 = tested on: HCT-116
M14 = tested on: M14
SK-MEL-2 = tested on: SK-MEL-2
CCRF-CEM = tested on: CCRF-CEM
OVCAR-4 = tested on: OVCAR-4

**Q.** N#CCC(=O)Nn1c(CC#N)nnc1Cc1ccccc1 was tested. Which GI50 (BT-549) did it give?
**A.** The GI50 was > 100 µM (inactive).

**Q.** And the GI50 (SW-620)?
**A.** The GI50 was > 100 µM (inactive).

**Q.** What about the GI50 (PC-3) of the same compound?
**A.** The GI50 was > 100 µM (inactive).

**Q.** And the GI50 (SNB-19)?
**A.** The GI50 was > 100 µM (inactive).

**Q.** And the GI50 (RXF 393)?
**A.** Its GI50 is > 100 µM (inactive).

**Q.** And the GI50 (MDA-MB-231)?
**A.** The GI50 was > 100 µM (inactive).

**Q.** What about the GI50 (MDA-N) of the same compound?
**A.** The GI50 was > 100 µM (inactive).

**Q.** What about the GI50 (K562) of the same compound?
**A.** Its GI50 is > 100 µM (inactive).

**Q.** And the GI50 (OVCAR-3)?
**A.** The GI50 was > 100 µM (inactive).

**Q.** What about the GI50 (NCI/ADR-RES) of the same compound?
**A.** The GI50 was > 100 µM (inactive).

**Q.** What about the GI50 (T47D) of the same compound?
**A.** The GI50 was > 100 µM (inactive).

**Q.** And the GI50 (SF-295)?
**A.** Its GI50 is > 100 µM (inactive).

**Q.** What about the GI50 (SF-268) of the same compound?
**A.** Its GI50 is > 100 µM (inactive).

**Q.** What about the GI50 (KM12) of the same compound?
**A.** The GI50 was > 100 µM (inactive).

**Q.** And the GI50 (HCT-116)?
**A.** The GI50 was > 100 µM (inactive).

**Q.** And the GI50 (M14)?
**A.** Its GI50 is > 100 µM (inactive).

**Q.** What about the GI50 (SK-MEL-2) of the same compound?
**A.** The GI50 was > 100 µM (inactive).

**Q.** Which GI50 (CCRF-CEM) does the source give for COc1cc2c[n+](C)c3c(c2cc1OC)Cc1cc2c(cc1-3)OCO2 here?
**A.** Its GI50 is 71.4 µM (inactive).

**Q.** And the GI50 (BT-549)?
**A.** Its GI50 is 90.2 µM (inactive).

**Q.** And the GI50 (SW-620)?
**A.** The GI50 was > 100 µM (inactive).

**Q.** And the GI50 (OVCAR-4)?
**A.** The GI50 was 87.3 µM (inactive).

**Q.** What about the GI50 (PC-3) of the same compound?
**A.** Its GI50 is > 100 µM (inactive).

**Q.** What about the GI50 (SNB-19) of the same compound?
**A.** The GI50 was > 100 µM (inactive).

**Q.** What about the GI50 (MDA-MB-231) of the same compound?
**A.** Its GI50 is > 100 µM (inactive).

**Q.** And the GI50 (MDA-N)?
**A.** The GI50 was > 100 µM (inactive).

**Q.** What about the GI50 (K562) of the same compound?
**A.** Its GI50 is > 100 µM (inactive).

**Q.** And the GI50 (OVCAR-3)?
**A.** Its GI50 is > 100 µM (inactive).

**Q.** What about the GI50 (NCI/ADR-RES) of the same compound?
**A.** The GI50 was > 100 µM (inactive).

**Q.** And the GI50 (T47D)?
**A.** Its GI50 is > 100 µM (inactive).

**Q.** And the GI50 (SF-295)?
**A.** Its GI50 is > 100 µM (inactive).

**Q.** And the GI50 (SF-268)?
**A.** Its GI50 is > 100 µM (inactive).

**Q.** What about the GI50 (KM12) of the same compound?
**A.** Its GI50 is > 100 µM (inactive).

**Q.** What about the GI50 (HCT-116) of the same compound?
**A.** Its GI50 is > 100 µM (inactive).

**Q.** What about the GI50 (M14) of the same compound?
**A.** Its GI50 is > 100 µM (inactive).

**Q.** And the GI50 (SK-MEL-2)?
**A.** Its GI50 is > 100 µM (inactive).

**Q.** CC(=O)Oc1cc(Cl)c(C)c2c1[C@H]1CC[C@]3(C)[C@@H](OC(C)=O)CC[C@H]3[C@@H]1CC2 was tested. Which GI50 (CCRF-CEM) did it give?
**A.** The GI50 was > 100 µM (inactive).

**Q.** And the GI50 (BT-549)?
**A.** The GI50 was > 100 µM (inactive).

**Q.** And the GI50 (SW-620)?
**A.** Its GI50 is > 100 µM (inactive).

**Q.** What about the GI50 (SNB-19) of the same compound?
**A.** The GI50 was > 100 µM (inactive).

**Q.** What about the GI50 (RXF 393) of the same compound?
**A.** The GI50 was 74.8 µM (inactive).

**Q.** What about the GI50 (MDA-MB-231) of the same compound?
**A.** The GI50 was > 100 µM (inactive).

**Q.** And the GI50 (MDA-N)?
**A.** Its GI50 is > 100 µM (inactive).

**Q.** What about the GI50 (K562) of the same compound?
**A.** The GI50 was 78.5 µM (inactive).

**Q.** And the GI50 (OVCAR-3)?
**A.** Its GI50 is > 100 µM (inactive).

**Q.** What about the GI50 (NCI/ADR-RES) of the same compound?
**A.** Its GI50 is > 100 µM (inactive).

**Q.** What about the GI50 (T47D) of the same compound?
**A.** Its GI50 is 83.2 µM (inactive).

**Q.** What about the GI50 (SF-295) of the same compound?
**A.** The GI50 was > 100 µM (inactive).

**Q.** What about the GI50 (SF-268) of the same compound?
**A.** The GI50 was > 100 µM (inactive).

**Q.** What about the GI50 (KM12) of the same compound?
**A.** Its GI50 is > 100 µM (inactive).

**Q.** What about the GI50 (HCT-116) of the same compound?
**A.** The GI50 was 54.6 µM (inactive).

**Q.** What about the GI50 (M14) of the same compound?
**A.** Its GI50 is > 100 µM (inactive).

**Q.** For O=C(O)CN(CC(=O)O)Cc1ccn(-c2cccc(-n3ccc(CN(CC(=O)O)CC(=O)O)n3)n2)n1, which GI50 (BT-549) is on record?
**A.** The GI50 was > 100 µM (inactive).

**Q.** And the GI50 (SW-620)?
**A.** Its GI50 is > 100 µM (inactive).

**Q.** And the GI50 (PC-3)?
**A.** Its GI50 is > 100 µM (inactive).

**Q.** And the GI50 (SNB-19)?
**A.** Its GI50 is > 100 µM (inactive).

**Q.** And the GI50 (RXF 393)?
**A.** The GI50 was > 100 µM (inactive).

**Q.** What about the GI50 (MDA-MB-231) of the same compound?
**A.** The GI50 was > 100 µM (inactive).

**Q.** And the GI50 (MDA-N)?
**A.** Its GI50 is > 100 µM (inactive).

**Q.** And the GI50 (OVCAR-3)?
**A.** The GI50 was > 100 µM (inactive).

**Q.** And the GI50 (NCI/ADR-RES)?
**A.** The GI50 was > 100 µM (inactive).

**Q.** And the GI50 (T47D)?
**A.** Its GI50 is > 100 µM (inactive).

**Q.** And the GI50 (SF-295)?
**A.** The GI50 was > 100 µM (inactive).

**Q.** And the GI50 (SF-268)?
**A.** Its GI50 is > 100 µM (inactive).

**Q.** What about the GI50 (KM12) of the same compound?
**A.** The GI50 was > 100 µM (inactive).

**Q.** And the GI50 (HCT-116)?
**A.** Its GI50 is > 100 µM (inactive).

**Q.** And the GI50 (M14)?
**A.** The GI50 was > 100 µM (inactive).

**Q.** What about the GI50 (SK-MEL-2) of the same compound?
**A.** The GI50 was > 100 µM (inactive).

**Q.** Which GI50 (CCRF-CEM) does the source give for COc1ccc2c(c1)C(N)=C(c1ccccc1)C2=O here?
**A.** Its GI50 is > 100 µM (inactive).

**Q.** What about the GI50 (BT-549) of the same compound?
**A.** The GI50 was > 100 µM (inactive).

**Q.** And the GI50 (SW-620)?
**A.** Its GI50 is > 100 µM (inactive).

**Q.** And the GI50 (OVCAR-4)?
**A.** The GI50 was > 100 µM (inactive).

**Q.** And the GI50 (PC-3)?
**A.** The GI50 was > 100 µM (inactive).

**Q.** And the GI50 (SNB-19)?
**A.** Its GI50 is 24.4 µM (inactive).

**Q.** And the GI50 (MDA-MB-231)?
**A.** The GI50 was 51.3 µM (inactive).

**Q.** And the GI50 (MDA-N)?
**A.** Its GI50 is > 100 µM (inactive).

**Q.** And the GI50 (OVCAR-3)?
**A.** The GI50 was > 100 µM (inactive).

**Q.** What about the GI50 (NCI/ADR-RES) of the same compound?
**A.** The GI50 was 36.6 µM (inactive).

**Q.** And the GI50 (T47D)?
**A.** Its GI50 is 32.5 µM (inactive).

**Q.** And the GI50 (SF-295)?
**A.** Its GI50 is 97.1 µM (inactive).

**Q.** And the GI50 (SF-268)?
**A.** Its GI50 is 27 µM (inactive).

**Q.** And the GI50 (KM12)?
**A.** Its GI50 is 36.6 µM (inactive).

**Q.** And the GI50 (HCT-116)?
**A.** The GI50 was 58.3 µM (inactive).

**Q.** And the GI50 (M14)?
**A.** The GI50 was > 100 µM (inactive).

**Q.** What about the GI50 (SK-MEL-2) of the same compound?
**A.** The GI50 was > 100 µM (inactive).

**Q.** How did the GI50 (CCRF-CEM) turn out when COc1cc(C2C3=C(COC3=O)OC(C)(C)Oc3cc4c(cc32)OCO4)cc(OC)c1OC (configuration not stated) was run?
**A.** Its GI50 is 0.395 µM (active).

**Q.** And the GI50 (BT-549)?
**A.** The GI50 was 6.67 µM (inactive).

**Q.** What about the GI50 (SW-620) of the same compound?
**A.** Its GI50 is 0.348 µM (active).

**Q.** And the GI50 (OVCAR-4)?
**A.** Its GI50 is 3.3 µM (inactive).

**Q.** And the GI50 (PC-3)?
**A.** The GI50 was 0.344 µM (active).

**Q.** What about the GI50 (SNB-19) of the same compound?
**A.** Its GI50 is 0.245 µM (active).

**Q.** What about the GI50 (RXF 393) of the same compound?
**A.** Its GI50 is 0.259 µM (active).

**Q.** And the GI50 (MDA-MB-231)?
**A.** Its GI50 is 0.358 µM (active).

**Q.** What about the GI50 (MDA-N) of the same compound?
**A.** Its GI50 is 0.212 µM (active).

**Q.** What about the GI50 (K562) of the same compound?
**A.** The GI50 was 0.353 µM (active).

**Q.** And the GI50 (OVCAR-3)?
**A.** Its GI50 is 0.447 µM (active).

**Q.** And the GI50 (NCI/ADR-RES)?
**A.** The GI50 was 0.299 µM (active).

**Q.** What about the GI50 (SF-295) of the same compound?
**A.** The GI50 was 0.222 µM (active).

**Q.** And the GI50 (SF-268)?
**A.** Its GI50 is 0.405 µM (active).

**Q.** What about the GI50 (KM12) of the same compound?
**A.** The GI50 was 0.212 µM (active).

**Q.** And the GI50 (HCT-116)?
**A.** Its GI50 is 0.318 µM (active).

**Q.** What about the GI50 (M14) of the same compound?
**A.** The GI50 was 0.281 µM (active).

**Q.** What about the GI50 (SK-MEL-2) of the same compound?
**A.** Its GI50 is 0.673 µM (active).
